Article PMC8069432, “Thiosemicarbazide Derivatives Decrease the ATPase Activity of Staphylococcus aureus Topoisomerase IV, Inhibit Mycobacterial Growth, and Affect Replication in Mycobacterium smegmatis” (International Journal of Molecular Sciences, 2021)
Read-outs that look alike come from different tables or passages of the source.

Biological target: T1, S. aureus topoisomerase IV (ATPase kit; ParE subunit) (Staphylococcus aureus, UniProt Q5HG65)
T1 construct: purified topoisomerase IV from commercial kit (Inspiralis), C2E2 heterotetramer; with DNA topoisomerase 4 subunit A
T1 sequence (Q2FYS4 whole entry): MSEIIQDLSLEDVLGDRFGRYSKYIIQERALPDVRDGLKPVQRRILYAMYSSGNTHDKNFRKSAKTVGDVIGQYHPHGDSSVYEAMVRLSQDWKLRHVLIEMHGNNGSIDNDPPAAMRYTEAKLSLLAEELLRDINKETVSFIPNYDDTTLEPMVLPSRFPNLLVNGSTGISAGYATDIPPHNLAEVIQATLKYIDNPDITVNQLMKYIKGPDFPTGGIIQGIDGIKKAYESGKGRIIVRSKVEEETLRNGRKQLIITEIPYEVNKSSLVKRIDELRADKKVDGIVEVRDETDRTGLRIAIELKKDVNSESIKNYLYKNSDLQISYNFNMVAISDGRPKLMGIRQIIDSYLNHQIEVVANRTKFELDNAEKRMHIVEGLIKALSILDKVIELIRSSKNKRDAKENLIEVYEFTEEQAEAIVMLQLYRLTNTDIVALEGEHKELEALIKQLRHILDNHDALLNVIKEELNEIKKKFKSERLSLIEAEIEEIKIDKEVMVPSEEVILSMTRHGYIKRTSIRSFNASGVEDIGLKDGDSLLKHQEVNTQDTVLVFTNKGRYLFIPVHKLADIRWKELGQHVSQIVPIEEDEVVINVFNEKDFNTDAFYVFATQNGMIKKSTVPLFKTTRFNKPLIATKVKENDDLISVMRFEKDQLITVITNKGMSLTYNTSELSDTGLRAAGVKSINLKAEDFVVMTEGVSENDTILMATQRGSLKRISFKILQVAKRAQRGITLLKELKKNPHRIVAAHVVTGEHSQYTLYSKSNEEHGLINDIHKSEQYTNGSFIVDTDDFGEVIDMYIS
T1 sequence (Q5HG65 whole entry): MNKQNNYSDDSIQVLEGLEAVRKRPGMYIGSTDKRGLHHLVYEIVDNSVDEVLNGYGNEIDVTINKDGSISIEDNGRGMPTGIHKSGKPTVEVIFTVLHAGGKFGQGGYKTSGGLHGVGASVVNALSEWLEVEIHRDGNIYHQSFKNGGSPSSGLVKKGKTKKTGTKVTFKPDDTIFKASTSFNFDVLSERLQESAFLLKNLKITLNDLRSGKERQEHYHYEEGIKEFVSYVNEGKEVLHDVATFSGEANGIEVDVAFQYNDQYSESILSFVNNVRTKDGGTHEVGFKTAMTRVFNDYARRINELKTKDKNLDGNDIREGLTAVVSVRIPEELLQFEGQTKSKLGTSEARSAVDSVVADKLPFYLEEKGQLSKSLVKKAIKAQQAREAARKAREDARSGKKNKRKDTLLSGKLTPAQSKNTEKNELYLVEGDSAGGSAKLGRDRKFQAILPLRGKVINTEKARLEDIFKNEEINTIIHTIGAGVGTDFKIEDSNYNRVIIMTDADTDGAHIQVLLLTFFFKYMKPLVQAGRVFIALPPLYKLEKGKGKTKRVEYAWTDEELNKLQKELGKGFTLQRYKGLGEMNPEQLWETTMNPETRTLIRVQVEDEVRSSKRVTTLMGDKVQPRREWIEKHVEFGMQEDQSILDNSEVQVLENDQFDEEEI
Test: PK/LDH-coupled ATPase assay, A340
Format: biochemical
Source text: PK/LDH-coupled ATPase assay, A340 on S. aureus topoisomerase IV (ATPase kit; ParE subunit)

SMILES	inhibition at 20 µM (read-out: 4)	inhibition at 20 µM (read-out: 7)
O=C(NNC(=S)Nc1ccc([N+](=O)[O-])cc1)c1cc2ccccc2[nH]1 [compound 4, 1-(indol-2-oyl)-4-(4-nitrophenyl) thiosemicarbazide]	55.8 ± 1.59%	
O=C(NC(=S)NNC(=O)c1cc2ccccc2[nH]1)c1ccccc1 [compound 7, 4-benzoyl-1-(indol-2-oyl) thiosemicarbazide]		49.4 ± 2.27%
